Test results: patent publication US20100063085A1, “METHOD OF TREATING LEARNING IMPAIRMENT IN DOWN'S SYNDROME SUBJECTS” (University Court of The University of Dundee, priority 2008, published 2010)
Where two headings read alike, the source gives them in different places.

What was measured:
Assay type in all cases: biochemical
[1] = target: GSK3b (Homo sapiens, UniProt P49841); test: GSK3b 33P kinase assay; conditions: read-out: GSK3b activity as percentage of control without inhibitor
Procedure: (§1) All assays (25.5 μl) were carried out at room temperature (21° C.) and were linear with respect to time and enzyme concentrations under the conditions used. Assays were performed for 30 minutes except assays for LCK and PKB which were performed for 15 minutes using Multidrop Micro reagent dispensers (Thermo Electron Corporation, Waltham, Mass. 02454, USA) in a 96-well format. The concentration of […] [γ-^33P] ATP (800 cpm/pmol) in the assays was one of three concentrations (5, 20 or 50 μM) in order to be at or below Km for ATP for the enzyme. Assays were initiated with MgATP and stopped by addition of 5 μl of 0.5M orthophosphoric acid. Assays were then harvested onto P81 filterplates using a unifilter harvester (PerkinElmer, Boston, Mass. 02118, USA), with a wash buffer of 50 mM orthophosphoric acid. Filterplates were then air dried overnight. 10 μl of Microscint O was added per well prior to counting for radioactivity.
(§2) MKK1, JNK/SAPK1c, SAPK2a/p38, SAPK2b/p38β2, SAPK3/p38γ, SAPK4/p38δ, MAPK2/ERK2, MAPKAP-K1β, MAPKAP-K2, MSK1, PRAK, PKA, PKCα, PDK1, SGK, p70S6K, GSK3β, ROCK-II, PRK2, AMPK, CHK1, CHK2, CK2, PHK, LCK, were assayed according to Davies et al., (Davies, S. P., Reddy, H., Caivano, M. and Cohen, P. Biochem. J. 351, 95-105, 2000.
(§3) CSK and CDK2/cyclinA, were assayed according to Bain et al. (Bain J, McLauchlan H, Elliott M, Cohen P. Biochem J. 371, 199-204, 2003., except that ATP concentrations were either 5, 20 or 50 micromolar so that they were at or below the Km for ATP. The ATP concentrations used were as follows, 5 μM for assays of MKK1, SAPK3, SAPK4, GSK3β, PRK2 CK2 20 μm for assays of JNK, SAPK2β, MAPKAP-K2, MSK1, PRAK, PKA, […], PDK1, SGK, p70S6K, ROCK-II, CHK1, CHK2, CSK, CDK2, and 50 μM for assays of SAPK2a, MAPK2/ERK2, AMPK, LCK, PHK and MAPKAP-K1β.

[2] = target: smMLCK (Homo sapiens, UniProt Q15746); test: smMLCK 33P kinase assay; conditions: read-out: smMLCK activity as percentage of control without inhibitor
Procedure: as §1
smMLCK (5-20 mU) diluted in 50 mM Hepes pH 7.5, 0.1 mM EGTA, 1 mg.ml BSA, 0.1% β-mercaptoethanol is assayed against substrate peptide […] in an incubation containing 50 mM Hepes pH 7.5, 0.1 mM EGTA, 5 mM CaCl2, 10 μM calmodulin, 300 μM substrate peptide, 10 mM magnesium acetate and 0.05 mM [^33P-γ-ATP] (500-1000 cpm/pmole).

[3] = system: PKBΔph; test: PKBΔph 33P kinase assay
Procedure: as §1

[4] = target: T1, SAPK4/p38d (Homo sapiens, UniProt O15264); test: SAPK4/p38d 33P kinase assay; conditions: read-out: SAPK4/p38d activity as percentage of control without inhibitor
T1 sequence (O15264 1-365): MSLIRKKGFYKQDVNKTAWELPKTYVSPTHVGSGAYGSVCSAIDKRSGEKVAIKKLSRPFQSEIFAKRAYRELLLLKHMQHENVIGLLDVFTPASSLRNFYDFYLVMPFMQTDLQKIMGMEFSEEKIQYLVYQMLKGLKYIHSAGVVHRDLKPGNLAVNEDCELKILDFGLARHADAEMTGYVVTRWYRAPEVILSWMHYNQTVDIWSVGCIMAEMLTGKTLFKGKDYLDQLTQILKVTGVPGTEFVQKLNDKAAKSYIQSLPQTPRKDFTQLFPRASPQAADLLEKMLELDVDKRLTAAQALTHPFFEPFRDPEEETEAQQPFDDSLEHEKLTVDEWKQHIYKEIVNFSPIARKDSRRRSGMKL
Procedure: as §1, §2, §3

[5] = system: AMPK; test: AMPK 33P kinase assay
Procedure: as §1, §2, §3

[6] = target: CHK2 (Homo sapiens, UniProt O96017); test: CHK2 33P kinase assay; conditions: read-out: CHK2 activity as percentage of control without inhibitor
Procedure: as §1, §2, §3

Sequence of GSK3b (P49841 whole entry, species assumed): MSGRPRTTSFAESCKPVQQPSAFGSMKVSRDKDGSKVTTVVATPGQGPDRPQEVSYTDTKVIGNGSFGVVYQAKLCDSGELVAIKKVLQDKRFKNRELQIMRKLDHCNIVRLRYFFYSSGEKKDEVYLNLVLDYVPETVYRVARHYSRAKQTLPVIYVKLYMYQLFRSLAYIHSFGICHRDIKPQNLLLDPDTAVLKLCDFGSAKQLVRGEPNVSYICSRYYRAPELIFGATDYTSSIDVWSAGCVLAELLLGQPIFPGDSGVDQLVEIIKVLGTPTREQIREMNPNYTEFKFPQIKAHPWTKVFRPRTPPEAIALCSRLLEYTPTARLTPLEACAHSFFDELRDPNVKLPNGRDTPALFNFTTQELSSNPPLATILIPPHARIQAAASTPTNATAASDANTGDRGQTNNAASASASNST
Sequence of CHK2 (O96017 whole entry, species assumed): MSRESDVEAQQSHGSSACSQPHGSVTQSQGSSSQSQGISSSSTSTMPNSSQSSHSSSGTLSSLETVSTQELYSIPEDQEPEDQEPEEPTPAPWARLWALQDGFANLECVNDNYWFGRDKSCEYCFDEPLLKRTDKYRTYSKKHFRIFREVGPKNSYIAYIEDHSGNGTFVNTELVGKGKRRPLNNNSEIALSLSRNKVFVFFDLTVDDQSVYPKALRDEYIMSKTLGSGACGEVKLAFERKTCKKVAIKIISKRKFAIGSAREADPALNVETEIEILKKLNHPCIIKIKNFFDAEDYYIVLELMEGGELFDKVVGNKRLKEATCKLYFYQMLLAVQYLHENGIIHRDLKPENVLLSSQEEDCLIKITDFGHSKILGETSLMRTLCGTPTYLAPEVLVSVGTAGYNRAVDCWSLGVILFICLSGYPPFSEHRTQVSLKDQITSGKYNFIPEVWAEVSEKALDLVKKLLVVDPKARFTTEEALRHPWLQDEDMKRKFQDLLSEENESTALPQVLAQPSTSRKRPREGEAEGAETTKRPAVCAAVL

COc1ccc2c3c([nH]c2c1)C(C)=NCC3 [Harmaline] gave a remaining activity at 1 µM [1] of 77%, a remaining activity at 10 µM [1] of 82% and a remaining activity at 1 µM ([2]; inhibitor 1 μM) of 92%. The remaining activity at 10 µM ([2]; inhibitor 10 μM) was 104%, the “PKBΔph activity as percentage of control without inhibitor” value ([3]; inhibitor 1 μM) was 80% and the “PKBΔph activity as percentage of control without inhibitor” value ([3]; inhibitor 10 μM) was 98%. For the same molecule, the remaining activity at 1 µM ([4]; inhibitor 1 μM) was 76%, the remaining activity at 10 µM ([4]; inhibitor 10 μM) was 113% and the “AMPK activity as percentage of control without inhibitor” value ([5]; inhibitor 1 μM) was 97%. For the same molecule, the “AMPK activity as percentage of control without inhibitor” value ([5]; inhibitor 10 μM) was 83%, the remaining activity at 1 µM ([6]; inhibitor 1 μM) was 89% and the remaining activity at 10 µM ([6]; inhibitor 10 μM) was 89%.
For CC1=NCCc2c1[nH]c1cc(O)ccc21 [Harmalol], the remaining activity at 1 µM ([1]; inhibitor 1 μM) was 90%, the remaining activity at 10 µM ([1]; inhibitor 10 μM) was 73% and the remaining activity at 1 µM ([2]; inhibitor 1 μM) was 76%. For the same molecule, the remaining activity at 10 µM ([2]; inhibitor 10 μM) was 71%, the “PKBΔph activity as percentage of control without inhibitor” value ([3]; inhibitor 1 μM) was 92% and the “PKBΔph activity as percentage of control without inhibitor” value ([3]; inhibitor 10 μM) was 58%. The remaining activity at 1 µM ([4]; inhibitor 1 μM) was 101%, the remaining activity at 10 µM ([4]; inhibitor 10 μM) was 93% and the “AMPK activity as percentage of control without inhibitor” value ([5]; inhibitor 1 μM) was 92%. For the same molecule, the “AMPK activity as percentage of control without inhibitor” value ([5]; inhibitor 10 μM) was 52%, the remaining activity at 1 µM ([6]; inhibitor 1 μM) was 76% and the remaining activity at 10 µM ([6]; inhibitor 10 μM) was 57%.
Work on COc1ccc2c(c1)[nH]c1c(C)nccc12 [Harmine] yielded a remaining activity at 1 µM [1] of 82%, a remaining activity at 10 µM [1] of 72% and a remaining activity at 1 µM [2] of 88%. The remaining activity at 10 µM [2] was 76%, the “PKBΔph activity as percentage of control without inhibitor” value ([3]; inhibitor 1 μM) was 107% and the “PKBΔph activity as percentage of control without inhibitor” value ([3]; inhibitor 10 μM) was 107%. The remaining activity at 1 µM [4] was 96%, the remaining activity at 10 µM [4] was 82% and the “AMPK activity as percentage of control without inhibitor” value ([5]; inhibitor 1 μM) was 98%. The “AMPK activity as percentage of control without inhibitor” value ([5]; inhibitor 10 μM) was 103%, the remaining activity at 1 µM [6] was 78% and the remaining activity at 10 µM [6] was 79%.
